In assay [1] the test system is A. limacinum wild-type strain. The assay can be described thus: G418 resistance on PDA agar plate, wild-type strain. The class given is cell-based, Aurantiochytrium limacinum mh0186. Conditions: 25° C., 2 days. On the procedure:
(§1) The transfectants were cultured in 0.5 mg/ml G418-containing GY liquid medium. The wild-type strain was cultured in GY liquid medium containing no G418. The culture fluids of these strains were spotted in 10-μl portions on PDA agar plate media containing G418 (0, 0.2, 0.5, 1, 2, 4 mg/ml), and growth on the agar plate media was observed after culturing the cells at 25° C. for 2 days. It was found as a result that the proliferation was inhibited at 0.2 mg/ml G418 in the wild-type strain, whereas the transfectants proliferated even in the presence of 4 mg/ml G418 (FIG. 13A). Further, there was no change in G418 resistance, and proliferation was observed even at a G418 concentration of 32 mg/ml in a similar experiment conducted with PDA agar plate media containing G418 (0, 2, 4, 8, 16, 32 mg/ml) after subculturing the transfectants five times in a GY liquid medium containing no G418 (FIG. 13B).

In assay [2] the test system is A. limacinum transfectants. The assay can be described thus: G418 resistance on PDA agar plate, ub-Neo^r transfectants. The class given is cell-based, Aurantiochytrium limacinum mh0186. As to the method: as §1
Assay [3] relates to T. aureum-derived Δ5 desaturase. The class given is cell-based, Thraustochytrium aureum. To be noted: S. cerevisiae expressing TauΔ5des, (product × 100)/(substrate + product). On the procedure: In order to verify that the acquired gene was Δ5 desaturase, overexpression experiment was conducted using a budding yeast S. cerevisiae as a host. First, the acquired gene was incorporated at the EcoRI/XhoI site of a yeast vector pYES2/CT (Invitrogen) to construct an expression vectorpYΔ5des. The constructed expression vector pY5Δdes was then introduced into S. cerevisiae, and GC analysis was performed after extracting and methylating the transfectant fatty acids obtained by using the lithium acetate technique. A gas chromatograph GC-2014 (Shimadzu Corporation) was used for the GC analysis, which was performed under the following conditions. Column: HR-SS-10 (30 m×0.25 mm; Shinwa Chemical Industries Ltd.), column temperature: 150° C.→(5° C./min)→220° C. (10 min), carrier gas: He (1.3 mL/min). GC-17A and GCMS-QP-5000 (Shimadzu Corporation) were used for GC-MS analysis, which was performed using a DB-1 capillary column (0.25 mmi.d.×30 m, film thickness 0.25 μm; Agilent) under the following conditions: column temperature 160° C.→(4° C./min)→260° C., injector port temperature 250° C. For peaks that caused troubles in the analyses, the fatty acids were analyzed after picolinyl esterification, using the same apparatuses and columns under the temperature condition 240° C.→(2.5° C./min)→260° C. (15 min)→(2.5° C./min)→280° C.

For assay [4], the system named is Thraustochytrium aureum-derived Δ5 desaturase. The assay can be described thus: Fatty acid composition of Δ5 desaturase-introduced Aurantiochytrium sp. mh0186 (mhΔ5neo^r), GC analysis. The class given is cell-based. To be noted: host mh0186; 0.1 mM ETA (to EPA) or DGLA (to AA) in medium. On the procedure: The transformed clone obtained in Example 6, (3), v. was cultured for 3 days, and mhneo^r and mhΔ5neo^r were analyzed by GC analysis after extracting the fatty acid methyl ester. Separately, 0.1 mM ETA or DGLA, exogenous fatty acids used as a substrate by Δ5 desaturase, was added to medium for incorporation into Labyrinthula, and GC analysis was performed after extracting the fatty acids as in the overexpression experiment using yeast. A gas chromatograph GC-2014 (Shimadzu Corporation) was used for the GC analysis, which was performed under the following conditions. Column: HR-SS-10 (30 m×0.25 mm; Shinwa Chemical Industries Ltd.), column temperature: 150° C.→(5° C./min)→220° C. (10 min), carrier gas: He (1.3 mL/min).
ETA or DGLA used as a substrate by Δ5 desaturase was also added to medium at 0.1 mM for incorporation into Labyrinthula. As a result, the precursor substances converted into EPA and AA in Labyrinthula, and the content increased, as observed in the Δ5 desaturase expression experiment using yeast (Tables 9 and 10). […] This experiment was repeated in three or more confirmatory experiments to confirm reproducibility. All experiments produced the same results.

In assay [5] the test system is Saccharomyces cerevisiae (pYES2/CT, mock). The assay can be described thus: Mock (pYES2/CT) introduced yeast, GC analysis of fatty acids. The class given is cell-based. Conditions: 100 × product/(product + substrate). As to the method: By using a plasmid containing the full length of the P. pyriformis-derived Δ12 desaturase gene as a template, a PCR was performed with primers Pry-F (SEQ ID NO: 60 in the Sequence Listing) and Pyr-R (SEQ ID NO: 61 in the Sequence Listing), using a PrimeSTAR GC polymerase kit (Takara Bio). The PCR added a HindIII restriction enzyme site and an XbaI restriction enzyme site at the both ends. The amplified fragments were incorporated in a pGEM-T-Easy vector (Promega), and sequence analysis was performed. […] As a result, a Δ12 desaturase gene expression vector pYpΔ12Des was constructed. […] For peaks that caused troubles in the analyses, the fatty acids were analyzed after picolinyl esterification, using the same apparatuses and columns under the temperature condition 240° C.→(2.5° C./min)→260° C. […]
In order to verify that the Δ12 desaturase was encoded by the acquired gene, an expression vector was constructed, and an expression experiment was conducted using a budding yeast S. cerevisiae (Invitrogen) as a host. […] The conversion efficiency from oleic acid to linoleic acid was 23.5±1.23%, as calculated according to the following equation. […]

Values joined by “and” are separate entries in the source; they are usually repeats but may differ in a detail not shown here. Equal values may be shown once. Read-outs that look alike come from different tables or passages of the source.

On to `CN[C@@H]1[C@@H](O)[C@@H](O[C@@H]2[C@@H](O)[C@H](O[C@H]3O[C@H]([C@@H](C)O)[C@@H](O)[C@H](O)[C@H]3N)[C@@H](N)C[C@H]2N)OC[C@]1(C)O` [G418], for which the “G418 concentration at which proliferation was inhibited” value in assay [1] amounted to 0.2 mg/mL. Besides, the “G418 concentration at which proliferation was still observed” value in assay [2] (PDA agar plate, 25° C., 2 days, highest tested 4 mg/ml) came to 4 mg/mL; in assay [2] (after subculturing five times without G418, highest tested 32 mg/ml) it was 32 mg/mL.

As to “Eicosadienoic acid [C20:2n-6 Eicosadienoic acid]”, the “Percentage of substrate converted (%)” value in assay [3] was 0.0%.

In the case of “Eicosatrienoic acid [C20:3n-3 Eicosatrienoic acid]”, the “Percentage of substrate converted (%)” value in assay [3] was found to be 0.0%. Turning to `CCCCC/C=C\C/C=C\C/C=C\CCCCCCC(=O)O` [DGLA, dihomo-γ-linolenic acid], the “Conversion efficiency of the precursor substance in Labyrinthula” value in assay [4] was 63% and 62.9%. For the same molecule, the “Percentage of substrate converted (%)” value in assay [3] is 27%; in assay [3] (listed as C20:3n-6 Dihomo-g-linolenic acid (DGLA)) it was 27.0%.

As to `CC/C=C\C/C=C\C/C=C\CCCCCCCC(=O)O` [18:3^Δ9,12,15, α-linolenic acid], the “Percentage of substrate converted (%)” value in assay [3] stood at 0.0%. For eicosatetraenoic acid [ETA], the “Conversion efficiency of the precursor substance in Labyrinthula” value in assay [4] was 75% and 75.2%. Further, the “Percentage of substrate converted (%)” value in assay [3] worked out at 32%; in assay [3] (listed as C20:4n-3 Eicosatetraenoic acid (ETA)), 32.0%. Consider `CCCCCC/C=C\CCCCCCCC(=O)O` [16:1^Δ9], for which, in assay [5], the “Conversion efficiency (%)” value is given as 0%. On to `CCCCC/C=C\C/C=C\CCCCCCCC(=O)O` [18:2^Δ9,12, linoleic acid], for which, in assay [3], the “Percentage of substrate converted (%)” value is listed as 0.0%.

Source of the values: patent US10815505B2, “Microbial oil extracted from stramenopiles” (priority 2009, dated 2020).
